“Also recorded” adds a separate entry of the source.
Legend:
other TEC family members = experiment: preclinical assays of binding persistence, other TEC family members; settings: over time
rat Arthus reaction = experiment: rat Arthus reaction; assay type: in vivo
immune thrombocytopenia = experiment: mouse model of immune thrombocytopenia; assay type: in vivo; settings: mouse ITP model
Pemphigus foliaceus = experiment: treatment of dogs with newly diagnosed, naturally occurring Pemphigus foliaceus; assay type: in vivo
human B cell = experiment: in vitro human B cell activation; assay type: cell-based
Fc receptor signaling = experiment: in vitro antibody (IgG, IgE) mediated activation of immune cells via Fc receptor signaling; assay type: cell-based
[1] = in comparison to first and second generation BTKi; cited from earlier work
[2] = humans, oral administration; cited from earlier work

For `CC(C)(C=C(C#N)C(=O)N1CCC[C@@H](n2nc(-c3ccc(Oc4ccccc4)cc3F)c3c(N)ncnc32)C1)N1CCN(C2COC2)CC1` (mixture of isomers) [rilzabrutinib, (R)-2-[3-[4-amino-3-(2-fluoro-4-phenoxy-phenyl)pyrazolo[3,4-d]pyrimidin-1-yl]piperidine-1-carbonyl]-4-methyl-4-[4-(oxetan-3-yl)piperazin-1-yl]pent-2-enenitrile], the “persistence of binding to other TEC family members” value (other TEC family members) was “decayed rapidly over time”, the “effect on rat Arthus reaction” value (rat Arthus reaction) was “blockade of the rat Arthus reaction” and the “platelet loss (consumption)” value (immune thrombocytopenia) was “reduction in platelet loss; also recorded: significant dose dependent reduction of platelet-loss”. The “cases with disease safely controlled without the need for corticosteroid” value (Pemphigus foliaceus) was 4 of 4, the “human B cell activation” value (human B cell) was “profoundly inhibits human B cell activation” and the “antibody (IgG, IgE) mediated activation of immune cells via Fc receptor signaling” value (Fc receptor signaling) was “blocks antibody (IgG, IgE) mediated activation of immune cells via Fc receptor signaling”. For the same compound, the “cross-reactivity with other molecules” value [1] was “minimal cross-reactivity with other molecules and is low risk for off-target effects” and the pharmacokinetics variability [2] was “variable pharmacokinetics”.
